Laboratory results published in paper PMC6790247 (Journal of Insect Science, 2019).

What was measured:
Type in all cases: biochemical
nlGSTE [1] = biological target: T1, nlGSTE (Nilaparvata lugens, UniProt J9Q4G5, F107A); experiment: spectrophotometry at […] nm, double-reciprocal plot; conditions: read-out: F107A; 5 mM GSH, 20 mM Tris-HCl pH 8.0, 30 °C
T1 sequence (J9Q4G5 1-217 F107A): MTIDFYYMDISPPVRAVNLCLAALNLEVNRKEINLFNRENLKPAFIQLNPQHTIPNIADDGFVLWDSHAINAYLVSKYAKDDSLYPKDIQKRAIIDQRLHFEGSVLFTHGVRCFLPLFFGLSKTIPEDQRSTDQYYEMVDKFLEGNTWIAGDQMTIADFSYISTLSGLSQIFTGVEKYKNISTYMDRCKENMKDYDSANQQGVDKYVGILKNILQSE

nlGSTE [2] = biological target: T2, nlGSTE (Nilaparvata lugens, UniProt J9Q4G5, F118L); experiment: spectrophotometry at […] nm, double-reciprocal plot; conditions: read-out: F118L; 5 mM GSH, 20 mM Tris-HCl pH 8.0, 30 °C
T2 sequence (J9Q4G5 1-217 F118L): T1 sequence (J9Q4G5 1-217 F107A)

nlGSTE [3] = biological target: T3, nlGSTE (Nilaparvata lugens, UniProt J9Q4G5); experiment: spectrophotometry at […] nm, double-reciprocal plot; conditions: read-out: WT; 5 mM GSH, 20 mM Tris-HCl pH 8.0, 30 °C
T3 sequence (J9Q4G5 1-217): T1 sequence (J9Q4G5 1-217 F107A)

nlGSTE [4] = biological target: T4, nlGSTE (Nilaparvata lugens, UniProt J9Q4G5, F119A); experiment: spectrophotometry at […] nm, double-reciprocal plot; conditions: read-out: F119A; 5 mM GSH, 20 mM Tris-HCl pH 8.0, 30 °C
T4 sequence (J9Q4G5 1-217 F119A): T1 sequence (J9Q4G5 1-217 F107A)

nlGSTE [5] = biological target: T5, nlGSTE (Nilaparvata lugens, UniProt J9Q4G5, R112A); experiment: spectrophotometry at […] nm, double-reciprocal plot; conditions: read-out: R112A; 5 mM GSH, 20 mM Tris-HCl pH 8.0, 30 °C
T5 sequence (J9Q4G5 1-217 R112A): T1 sequence (J9Q4G5 1-217 F107A)

nlGSTE [6] = biological target: T3, nlGSTE; experiment: inhibition of CDNB conjugation, spectrophotometry; conditions: read-out: % remaining activity at 0.1 mM
nlGSTE [7] = biological target: T3, nlGSTE; experiment: inhibition of CDNB conjugation, spectrophotometry; conditions: substrates CDNB and GSH; several inhibitor concentrations

O=[N+]([O-])c1ccc(Cl)c([N+](=O)[O-])c1 [CDNB, 1-chloro-2,4-dinitrobenzene]
Km (nlGSTE [1]): 3.1 ± 0.367 mM | Km (nlGSTE [2]): 4.2 ± 0.865 mM | Km (nlGSTE [3]): 2.1 ± 0.165 mM | Km (nlGSTE [4]): 5 ± 0.575 mM | Km (nlGSTE [5]): 8.7 ± 0.666 mM

CNC(=O)Oc1cccc2c1OC(C)(C)O2 [bendiocarb]
remaining activity at 100 µM (nlGSTE [6]): 36%

CCOCn1c(-c2ccc(Cl)cc2)c(C#N)c(Br)c1C(F)(F)F [chlorfenapyr]
remaining activity at 100 µM (nlGSTE [6]): 84%

CCOP(=S)(OCC)Oc1cc(C)nc(C(C)C)n1 [diazinon]
remaining activity (nlGSTE [7]): nlGSTE activity was affected by permethrin, bendiocarb, diazinon, and chlorfenapyr

CC1(C)C(C=C(Cl)Cl)C1C(=O)OCc1cccc(Oc2ccccc2)c1 (stereo not drawn) [permethrin]
remaining activity (nlGSTE [7]): nlGSTE activity was affected by permethrin, bendiocarb, diazinon, and chlorfenapyr
